In patent US4463009A, “Dialkyl 1-(2-pyridinylthio)-1,2-hydrazinedicarboxylate, N-oxides and their use as animal growth stimulants” (priority 1983, dated 1984):
In brackets after ≈: the same amount, converted by molar mass.

Columns and labels:
[1] = test system: C. albicans; experiment: chemotherapeutic activity, m.i.c. against C. albicans; type: cell-based; details: Candida albicans
[2] = test system: Staph. aureus; experiment: chemotherapeutic activity, m.i.c. against Staph. aureus; type: cell-based; details: Staphylococcus aureus
[3] = test system: Strep. faecalis; experiment: chemotherapeutic activity, m.i.c. against Strep. faecalis; type: cell-based; details: Enterococcus faecalis
[4] = test system: E. coli; experiment: chemotherapeutic activity, m.i.c. against E. coli; type: cell-based; details: Escherichia coli
[5] = test system: broiler chicks; experiment: Chick Growth Study; type: in vivo, chicken; details: 8 reps (8/rep)
Protocol: One day old broiler chicks, selected for weight, health and sex, are housed in an environmentally controlled room with temperature at 80° F. and humidity at 40%. Chicks are fed ad libitum. Water is offered ad libitum. A rye or corn basal ration is fed during the acclimation period (days 1 and 2), then, mixed with the compound under test or control conditions on days 3-17. Either 8 pens (64 chicks) or 16 pens (128 chicks) are used for each test or control group.
B. Representative results using diethyl 1-(2-pyridinylthio)-1,2-hydrazinedicarboxylate, N-oxide: […]

[6] = test system: Ileal inoculum (filtrate) of Yorkshire barrow; experiment: in vitro incubation with inoculum from cannulated swine (ileal); type: cell-based; details: 5 hours at 37°
Protocol: A Yorkshire barrow is surgically prepared either with an ileal cannula, which is placed 15 cm. from the ileo-ceco-colic junction, or a cecal cannula, which placed midway between the apex and origin of the cecum. The animal is fed 4 times daily to restrict intake to 4.5% of body weight in a 30 kg animal or 2.5% of body weight in a 100 kg animal. The swine grower ration is:
Sampling of the material, via the cannula, begins 150-180 minutes following the first morning feeding and continues any time from 30-120 minutes thereafter, depending on the quantity of material needed. The sample is maintained in crushed ice, no cooler than 5°, and is gassed continuously with carbon dioxide. The collected material is filtered. The filtrate is the inoculum used for incubations of the test and control samples. […] Four blank control tubes, along with the test compound tubes, are incubated 5 hours at 37° with agitation. Four more killed tubes are included which are not incubated.
The tubes are each treated with 0.60 ml of a 25% solution of metaphosphoric acid, then, stored at -4° until analysis. Samples are thawed and centrifuged for 25 minutes at 20,000 r.p.m. The supernatent liquid is decanted, sampled for gas chromatography and automatic analysis. The results are fed into a computer for finishing to give figures in which the blank control value is 100%. Virginiamycin is used as a positive control.
*VFA refers to the total of volatile fatty acids, namely acetate,
propionate, isobutyrate, butyrate, isovalerate and valerate. LYS is
lysine, GLU is glucose and LAC is Llactic acid.

[7] = (3) positive control, 166.67 ppm

CCOC(=O)NN(Sc1cccc[n+]1[O-])C(=O)OCC [diethyl 1-(2-pyridinylthio)-1,2-hydrazinedicarboxylate, N-oxide]
MIC [1]: 63 µg/mL (≈ 209 µM)
MIC [2]: 2 µg/mL (≈ 6.64 µM)
MIC [3]: 3 µg/mL (≈ 9.96 µM)
MIC [4]: 63 µg/mL (≈ 209 µM)
Weight, 17 day ([5]; trial (1)): 102.0 % of Control
Dead ([5]; trial (1), 20 ppm in feed): 1
Feed/Gain, days 3-10 ([5]; trial (1), 20 ppm in feed): 102.2 % of Control
Feed/Gain, days 3-17 ([5]; trial (1), 20 ppm in feed): 101.7 % of Control
Feed/Gain, days 10-17 ([5]; trial (1), 20 ppm in feed): 101.7 % of Control
Weight, 10 day ([5]; trial (1), 20 ppm in feed): 96.4 % of Control
Weight, 17 day ([5]; trial (1), 20 ppm in feed): 103.2 % of Control
Dead ([5]; trial (1), 40 ppm in feed): 4
Feed/Gain, days 3-10 ([5]; trial (1), 40 ppm in feed): 103.3 % of Control
Feed/Gain, days 3-17 ([5]; trial (1), 40 ppm in feed): 98.4 % of Control
Feed/Gain, days 10-17 ([5]; trial (1), 40 ppm in feed): 95.0 % of Control
Weight, 10 day ([5]; trial (1), 40 ppm in feed): 90.9 % of Control
Dead ([5]; trial (2), 20 ppm in feed): 4
Feed/Gain, days 3-10 ([5]; trial (2), 20 ppm in feed): 96.8 % of Control
Feed/Gain, days 3-17 ([5]; trial (2), 20 ppm in feed): 96.4 % of Control
Feed/Gain, days 10-17 ([5]; trial (2), 20 ppm in feed): 96.5 % of Control
Weight, 10 day ([5]; trial (2), 20 ppm in feed): 103.5 % of Control
Weight, 17 day ([5]; trial (2), 20 ppm in feed): 103.4 % of Control
Dead ([5]; trial (3), 50 ppm in feed): 0
Feed/Gain, days 3-10 ([5]; trial (3), 50 ppm in feed): 97.1 % of Control
Feed/Gain, days 3-17 ([5]; trial (3), 50 ppm in feed): 93.6 % of Control
Feed/Gain, days 10-17 ([5]; trial (3), 50 ppm in feed): 85.2 % of Control
Weight, 10 day ([5]; trial (3), 50 ppm in feed): 93.2 % of Control
Weight, 17 day ([5]; trial (3), 50 ppm in feed): 102.8 % of Control
GLU (glucose) ([6]; (1), 1.67 ppm): 166 % of control values
LAC (L-lactic acid) ([6]; (1), 1.67 ppm): 91 % of control values
LYS (lysine) ([6]; (1), 1.67 ppm): 109 % of control values
VFA (total volatile fatty acids) ([6]; (1), 1.67 ppm): 91 % of control values
GLU (glucose) ([6]; (1), 16.67 ppm): 237 % of control values
LAC (L-lactic acid) ([6]; (1), 16.67 ppm): 81 % of control values
LYS (lysine) ([6]; (1), 16.67 ppm): 152 % of control values
VFA (total volatile fatty acids) ([6]; (1), 16.67 ppm): 72 % of control values
GLU (glucose) ([6]; (1), 166.7 ppm): 379 % of control values
LAC (L-lactic acid) ([6]; (1), 166.7 ppm): 54 % of control values
LYS (lysine) ([6]; (1), 166.7 ppm): 194 % of control values
VFA (total volatile fatty acids) ([6]; (1), 166.7 ppm): 47 % of control values
GLU (glucose) ([6]; (2), 166.67 ppm): 845 % of control values
LAC (L-lactic acid) ([6]; (2), 166.67 ppm): 139 % of control values
LYS (lysine) ([6]; (2), 166.67 ppm): 110 % of control values
VFA (total volatile fatty acids) ([6]; (2), 166.67 ppm): 55 % of control values

virginiamycin [reference compound]
GLU (glucose) ([6]; (3) positive control, 1.67 ppm): 393 % of control values
LAC (L-lactic acid) ([6]; (3) positive control, 1.67 ppm): 0 % of control values
LYS (lysine) ([6]; (3) positive control, 1.67 ppm): 99 % of control values
VFA (total volatile fatty acids) ([6]; (3) positive control, 1.67 ppm): 255 % of control values
GLU (glucose) ([6]; (3) positive control, 16.7 ppm): 464 % of control values
LAC (L-lactic acid) ([6]; (3) positive control, 16.7 ppm): 12 % of control values
LYS (lysine) ([6]; (3) positive control, 16.7 ppm): 141 % of control values
VFA (total volatile fatty acids) ([6]; (3) positive control, 16.7 ppm): 114 % of control values
GLU (glucose) [6, 7]: 496 % of control values
LAC (L-lactic acid) [6, 7]: 14 % of control values
LYS (lysine) [6, 7]: 144 % of control values
VFA (total volatile fatty acids) [6, 7]: 86 % of control values
